Measured values taken from patent US20210353566A1, “THE USE OF CHOLINE SUPPLEMENTATION AS THERAPY FOR APOE4-RELATED DISORDERS” (Massachusetts Institute of Technology, priority 2020, published 2021).

Assays:
APOE4-expressing yeast = experiment: Growth rate of APOE4-expressing yeast in minimal CSM media; format: cell-based; settings: ethanolamine 1 mM, choline chloride 1 mM, choline bitartrate 100 μg/ml, compared to APOE3 strain
From the text: The data was normalized to the growth of untreated yeast strain expressing GFP (control). Data are represented as mean±SD, n=3. […] Data is represented as mean±SD, n=6 (Student's t-test, ns p>0.05; *** p≤0.001).
In order to explore APOE4-mediated lipid dysregulation in an unbiased manner, yeast were built and interrogated that express APOE3 or APOE4 in to the secretory pathway.

APOE4 astrocytes [1] = experiment: Lipid droplet number (LipidTox) in iPSC-derived APOE4 astrocytes in supplemented media; format: cell-based, human; settings: for LD number per cell: APOE4 astrocytes, supplemented media (CDP-choline 100 μM) vs vehicle
Experimental: (§1) Right, quantification of the lipid droplet number per cell (n=4 experiments). […] Lipid were extracted from APOE3 and APOE4 iPSC-derived astrocytes grown in a regular media or the media supplemented with CDP-choline (100 μM). Data is represented as mean±SD, n=3 experiments.

EFAD mice = system: EFAD mice
From the text: FIGS. 7A-7C show graphs depicting mice weight over time. FIG. 7A depicts mice fed a high choline diet (3.4 g/kg choline chloride) and minimum recommended choline diet (0.7 g/kg choline chloride) for one month. FIG. 7B depicts mice fed a sub-recommended choline diet (0.1 g/kg choline chloride) compared to standard choline (1.1 g/kg choline chloride) for one month. FIG. 7C depicts mice fed a high choline diet (3.4 g/kg choline chloride) and minimum recommended choline diet (0.7 g/kg choline chloride) for three months.
The “EFAD” APOE knock-in mouse were selected, where the endogenous Apoe locus is replaced with the human isoform of APOE2, APOE3, or APOE4 in 5×FAD mice, and where APOE isoform effects on disease progression have been documented (Tai et al, 2017). Custom chow containing the National Research Council (NRC) minimum, (0.7 g/kg choline chloride) and NRC maximum (3.4 g/kg choline chloride) was manufactured and fed these to EFAD mice for 4-12 weeks (˜84 days).

APOE4 microglia = settings: interferon gamma
From the text: Data is represented as mean±SD, n=3-5 (ANOVA with multiple comparisons, * p≤0.05, ** p≤0.01).
Many AD risk factors are expressed in microglia including APOE, which along with TREM2, coordinates the transition from homeostatic to disease-associated state (Kraseman et al, 2017; Keren-Shaul et al, 2017).

APOE3 astrocytes = experiment: Lipid droplet quantification (LipidTox) in iPSC-derived astrocytes treated with oleic acid; format: cell-based, human; settings: oleic acid 20 μM vs vehicle
From the text: (§2) FIG. 1A is a schematic depicting the use of isogenic astrocytes derived from patient-derived iPSCs and the lipidomic analysis. FIG. 1B is a heatmap showing the fold change (log 2) between APOE4/APOE4 and APOE3/APOE3 in abundance of phospholipids (˜150 lipid species, upper panel) and triglycerides (˜120 species, lower panel). FIG. 1C is a graph presenting a fold change difference of the number of unsaturated bonds in fatty acids attached to triglycerides (TAGs). […] Data is represented as mean±SD (Student's t-test, **** p≤0.0001). FIG. 1E is a fluorescent microscopy images of the APOE3/APOE3 and APOE4/APOE4 astrocytes stained with an anti-Perilipin 2 antibody. Right, quantification of the Perilipin-2 foci per cell (each point (n) is an average of four wells, n=4). Data is represented as mean±SD (Student's t-test, **** p≤0.0001). FIG. 1F is a quantification of lipid droplets in astrocytes treated with vehicle (control) or with oleic acid (20 μM) (n=4 experiments).
(§3) APOE is expressed in several organs, with the highest expression in the liver, followed by the brain. In the brain, astrocytes and to some extent microglia are the major cell types that express APOE in the brain (Kim, Basak et al. 2009). It was hypothesized that APOE4-mediated lipid dysregulation contributes to its role as a disease risk factor. […]

APOE4 astrocytes [2] = experiment: as above; format: cell-based, human; settings: oleic acid 20 μM vs vehicle
From the text: as §2, §3

APOE4 astrocytes [3] = experiment: Intracellular TAGs and their unsaturation extracted from iPSC-derived astrocytes; format: cell-based, human; settings: CDP-choline 100 μM vs regular media
Experimental: as §1

[4] = chow 0.7 g/kg and 3.4 g/kg choline chloride, 4-12 weeks
[5] = diets 0.1, 0.7, 1.1, 3.4 g/kg choline chloride, one or three months

C[N+](C)(C)CCO.O=C([O-])C(O)C(O)C(=O)O (stereo not shown) [choline bitartrate]
growth of APOE4 yeast in supplemented media (APOE4-expressing yeast): sufficient to suppress the APOE4-associated growth defect

C[N+](C)(C)CCO.[Cl-] [choline chloride]
LD number per cell (APOE4 astrocytes [1]): significant decrease in the LD number, down to the levels found in APOE3-expressing astrocytes
lipid droplet accumulation, dose dependence (APOE4 astrocytes [1]; choline chloride 1 μM, 10 μM, 100 μM in astrocyte media, extended culture 14 days): improves lipid droplet accumulation in a dose-dependent manner
growth of APOE4 yeast in supplemented media (APOE4-expressing yeast): sufficient to suppress the APOE4-associated growth defect
general health (EFAD mice; [4]): general health appeared normal
toxicity (EFAD mice; [4]): no clear indication of toxicity
body condition or appetite (EFAD mice; [5]): no significant defects
mice weight over time (EFAD mice; [5]): gained appropriate weight
lipid droplet volume, APOE4 vs APOE3 microglia (APOE4 microglia; supplemented 65 μM Choline Chloride vs low 15 μM, extended culture): no difference is detected
IL-1b induction (APOE4 microglia; supplemented 250 μM Choline Chloride vs low 65 μM): rescued

CCCCCCCC/C=C\CCCCCCCC(=O)O [oleic acid]
increase of lipid droplet content (APOE3 astrocytes): ~1.5 fold
lipid droplet accumulation (APOE4 astrocytes [2]): ~3 fold

NCCO [ethanolamine]
growth of APOE4 yeast in supplemented media (APOE4-expressing yeast): did not influence growth

C[N+](C)(C)CCOP(=O)(O)OP(=O)([O-])OC[C@H]1O[C@@H](n2ccc(N)nc2=O)[C@H](O)[C@@H]1O [CDP-choline]
LD number per cell (APOE4 astrocytes [1]): significant decrease in the LD number, down to the levels found in APOE3-expressing astrocytes
intracellular TAG levels (APOE4 astrocytes [3]): normalizes
unsaturation of TAGs (number of unsaturated bonds in fatty acids) (APOE4 astrocytes [3]): normalizes
